Test results reported in the supplement of paper PMC10307832.

How the values were obtained:
Assay in all cases: relative viability (nuclei count vs DMSO), 5 days (fraction); higher = more cells survive
Fedratinib + Foretinib = compound: Cc1cnc(Nc2ccc(OCCN3CCCC3)cc2)nc1Nc1cccc(S(=O)(=O)NC(C)(C)C)c1 [Fedratinib] + COc1cc2c(Oc3ccc(NC(=O)C4(C(=O)Nc5ccc(F)cc5)CC4)cc3F)ccnc2cc1OCCCN1CCOCC1 [Foretinib] (partner 0.25 µM)
In short: (§1)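 Five library-drug doses in √10 steps were combined with a fixed anchor-drug dose, or a single drug was given alone, by pin tool to lung cancer cell lines in 1536-well plates the day after seeding. Nuclei were stained and counted after 5 days. Relative viability is the nuclei count in treated wells over that in vehicle wells, taken as the median of duplicate plates.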

GW-2580 + Dasatinib = compound: COC1=CC=C(C=C1)COC2=C(C=C(C=C2)CC3=CN=C(N=C3N)N)OC [GW-2580] + Cc1nc(Nc2ncc(C(=O)Nc3c(C)cccc3Cl)s2)cc(N2CCN(CCO)CC2)n1 [Dasatinib] (partner 0.075 µM)
In short: as §1

GW-2580 + Bortezomib = compound: COC1=CC=C(C=C1)COC2=C(C=C(C=C2)CC3=CN=C(N=C3N)N)OC [GW-2580] + CC(C)C[C@H](NC(=O)[C@H](Cc1ccccc1)NC(=O)c1cnccn1)B(O)O [Bortezomib] (partner 0.002 µM)
In short: as §1

GW-2580 + Crizotinib = compound: COC1=CC=C(C=C1)COC2=C(C=C(C=C2)CC3=CN=C(N=C3N)N)OC [GW-2580] + C[C@@H](Oc1cc(-c2cnn(C3CCNCC3)c2)cnc1N)c1c(Cl)ccc(F)c1Cl [Crizotinib] (partner 1 µM)
In short: as §1

Fedratinib + Trametinib = compound: Cc1cnc(Nc2ccc(OCCN3CCCC3)cc2)nc1Nc1cccc(S(=O)(=O)NC(C)(C)C)c1 [Fedratinib] + CC(=O)Nc1cccc(-n2c(=O)n(C3CC3)c(=O)c3c(Nc4ccc(I)cc4F)n(C)c(=O)c(C)c32)c1 [Trametinib] (partner 0.02 µM)
In short: as §1

| Cell Line | relative viability (Fedratinib + Foretinib; first compound 0.1 µM) | relative viability (Fedratinib + Foretinib; first compound 0.3162 µM) | relative viability (Fedratinib + Foretinib; first compound 1 µM) | relative viability (GW-2580 + Dasatinib; first compound 0.08 µM) | relative viability (GW-2580 + Dasatinib; first compound 0.8 µM) | relative viability (GW-2580 + Dasatinib; first compound 2.53 µM) | relative viability (GW-2580 + Dasatinib; first compound 8 µM) | relative viability (GW-2580 + Bortezomib; first compound 0.08 µM) | relative viability (GW-2580 + Bortezomib; first compound 0.8 µM) | relative viability (GW-2580 + Bortezomib; first compound 2.53 µM) | relative viability (GW-2580 + Bortezomib; first compound 8 µM) | relative viability (GW-2580 + Crizotinib; first compound 0.08 µM) | relative viability (GW-2580 + Crizotinib; first compound 0.8 µM) | relative viability (GW-2580 + Crizotinib; first compound 2.53 µM) | relative viability (GW-2580 + Crizotinib; first compound 8 µM) | relative viability (Fedratinib + Trametinib; first compound 0.1 µM) | relative viability (Fedratinib + Trametinib; first compound 0.3162 µM) | relative viability (Fedratinib + Trametinib; first compound 1 µM) |
| --- | --- | --- | --- | --- | --- | --- | --- | --- | --- | --- | --- | --- | --- | --- | --- | --- | --- | --- |
| NCI-H1975 | 1.09 | 0.947 | 0.746 | 0.406 | 0.388 | 0.379 | 0.315 | 0.373 | 0.368 | 0.317 | 0.366 | 1 | 1.12 | 0.926 | 0.796 | 0.344 | 0.234 | 0.304 |
| CAL-12T | 0.934 | 0.992 | 1.08 | 0.485 | 0.443 | 0.438 | 0.505 | 0.901 | 1.28 | 0.884 | 1.16 | 0.632 | – | 0.59 | 0.577 | 0.4 | 0.332 | 0.304 |
| NCI-H1623 | 0.839 | 0.876 | 0.817 | 0.46 | 0.645 | 0.447 | 0.583 | – | – | – | – | – | – | – | – | – | – | – |
| HCC-44 | – | – | – | – | – | – | – | 0.95 | 0.997 | 0.822 | 0.914 | 0.899 | 0.843 | 0.751 | 0.839 | 1.15 | 1.01 | 1.11 |
| EKVX | 0.791 | 0.687 | 0.828 | 0.613 | 0.655 | 0.431 | 0.527 | 1.09 | 1.12 | 0.874 | 1.01 | 1.09 | 1.52 | 0.979 | 0.935 | 0.333 | 0.293 | 0.363 |
| NCI-H1651 | 0.813 | 0.73 | 0.761 | 0.307 | 0.447 | 0.43 | 0.582 | 0.953 | 1.08 | 0.89 | 0.942 | 0.917 | 0.952 | 0.813 | 0.874 | 0.778 | 0.826 | 0.859 |
| NCI-H1944 | 0.837 | 0.962 | 0.824 | 0.207 | 0.224 | 0.203 | 0.212 | – | – | – | – | 1.21 | 1.01 | 1.4 | 1.03 | 0.448 | 0.422 | 0.42 |
| NCI-H1703 | 0.317 | 0.296 | 0.324 | – | – | – | – | 0.307 | 0.351 | 0.532 | 0.335 | 0.752 | 0.631 | 0.714 | 0.647 | – | – | – |
| Calu-6 | 0.855 | 0.857 | 0.784 | – | – | – | – | 1.06 | 1.09 | 0.948 | 1.05 | 0.85 | 0.857 | 0.769 | 0.674 | – | – | – |
| EBC-1 | 0.112 | 0.103 | 0.1 | – | – | – | – | 0.609 | 0.572 | 0.492 | 0.554 | 0.205 | 0.163 | 0.19 | 0.164 | – | – | – |
| SW 1573 | 0.906 | 0.947 | 0.807 | 0.464 | 0.45 | 0.452 | 0.407 | 0.903 | 0.932 | 0.987 | 0.798 | 0.73 | 0.764 | 0.803 | 0.643 | 0.489 | 0.538 | 0.402 |
| A-427 | 1.04 | 1 | 1.05 | 0.758 | 0.794 | 0.511 | 0.735 | 1.14 | 1.13 | 0.915 | 0.878 | 0.926 | 1.07 | 0.785 | 0.663 | 0.633 | 0.649 | 0.627 |
| NCI-H2347 | 0.869 | 0.853 | 0.829 | 0.341 | 0.294 | 0.244 | 0.271 | 1.01 | 1.23 | 0.842 | 1.26 | 0.733 | 0.702 | 0.603 | 0.736 | 0.252 | 0.27 | 0.27 |
| NCI-H1355 | 1.06 | 0.973 | 0.913 | 0.831 | 0.779 | 0.468 | 0.649 | 1.24 | 1.38 | 1.06 | 1.16 | 1.24 | 1.12 | 0.946 | 1.01 | 0.442 | 0.387 | 0.412 |
| NCI-H358 | 0.482 | 0.63 | 0.541 | 0.173 | 0.199 | 0.159 | 0.115 | – | – | – | – | 0.654 | 0.543 | 0.554 | 0.502 | 0.126 | 0.125 | 0.111 |
| PC-3 [JPC-3] | 0.982 | 1.08 | 1.06 | 0.986 | 1.14 | 0.845 | 1.03 | 0.886 | 1.01 | 0.846 | 0.792 | 0.985 | 1.08 | 0.98 | 0.945 | 0.561 | 0.757 | 0.655 |
| NCI-H2228 | 0.847 | 0.825 | 0.743 | 0.557 | 0.551 | 0.441 | 0.488 | 1.03 | 1.1 | 0.958 | 0.986 | 0.404 | 0.528 | 0.408 | 0.5 | 0.629 | 0.306 | 0.404 |
